In publication PMC6027359, “NUC041, a Prodrug of the DNA Methytransferase Inhibitor 5-aza-2′,2′-Difluorodeoxycytidine (NUC013), Leads to Tumor Regression in a Model of Non-Small Cell Lung Cancer” (Pharmaceuticals, 2018):
Values joined by “and” are separate entries in the source; they are usually repeats but may differ in a detail not shown here. Equal entries are not always repeated. “Also recorded” adds a separate entry of the source. Where two headings read alike, the source gives them in different places.

Experiments:
NSCLC NCI-H460 = assay: GI50 in NSCLC NCI-H460 cells (CellTiter-Glo); type: cell-based, human
Description: (§1) As per methods previously presented, cells were grown in an appropriate medium for the cell line of interest. 96 well plates of each cell line were seeded with 5000 cells per well and left overnight. […] Luminescence was recorded on a Synergy 4.0 (BioTek Instruments, Winooski, VT, USA). Assays were performed in triplicate.

Colon Cancer HCT-116 = assay: GI50 in colon cancer HCT-116 cells (CellTiter-Glo); type: cell-based, human
Description: as §1

[1] = Pharmacokinetics in mouse whole blood after IV NUC041 in lipid nano-emulsion (LNE); settings: analyte in whole blood, NUC041 15 mg/kg IV in LNE vehicle, mice
Source text: As per methods previously presented, the lipid nano-emulsion (Latitude Pharmaceuticals, San Diego, CA, USA) contained an oil phase consisting of an injectable oil and lecithin and an aqueous phase comprising a tonicity adjuster, a stabilizer, and water.

[2] = tested on: human colon cancer (LoVo); assay: Mouse xenograft model of human colon cancer (LoVo); type: in vivo, NCr-nu/nu mice
Description: NUC041 in LNE was tested at 30 mg/kg IV for three consecutive days a week for three weeks in a mouse xenograft model of human colon cancer (Lovo) and compared to saline control (SC).
Study initiation began when the required number of mice had tumors of approximately 40 to 75 mm^3. […] Study initiation began when the required number of mice had tumors of approximately 32 to 75 mm^3.
Mice received test article as described in the text. […] Any animal whose weight decreased more than 30% from the weight on the first day of treatment or whose tumor reached 4000 mm^3 in volume, ulcerated, sloughed off, or was moribund was euthanized prior to study termination.

[3] = Tolerability studies of NUC041 formulated in PPD; type: in vivo, mice
Description: Administration of 50 µL of PPD vehicle IM led to a weight loss of 10.9% two days following vehicle administration. NUC041 was formulated at a concentration of 60 mg/mL in this vehicle.

human NSCLC NCI-H460 [4] = assay: Tumor histology of NCI-H460 xenografts; type: in vivo, NCr-nu/nu mice
Source text: Approximately half of each tumor was fixed in 10% neutral-buffered formalin and the other half was frozen. The fixed neoplasm was trimmed, processed, embedded, and microtomed (approximately 5 µm sections). Tissue sections were mounted on glass slides, stained with hematoxylin and eosin (H&E), and coverslipped. Slides were submitted to a veterinary pathologist for a histopathologic evaluation.

human NSCLC NCI-H460 [5] = assay: Human NSCLC NCI-H460 xenograft; settings: for mean tumor volume at which ulceration developed: SC 2770; for deaths in group / mice that developed tumor ulceration: NCI-H460 xenograft; for deaths in group: n = 10 per group, NUC041: 0.6 mg group; for mice that developed tumor ulceration: NUC041 both PPD groups, evaluable mice, SC 4 of 10; for Median survival: p = NS
Description: Survival refers to animals that were not removed from the study by death or per protocol euthanasia.
Mice with tumors in the proper volume range were arbitrarily assigned to groups. Mice received test article as described in the text. Mice were observed daily for mortality and moribundity with weights and the tumor measurements taken twice weekly. Tumor volume was determined using the formula for an ellipsoid sphere: Length × Width^2/2 = Volume (mm^3). The experiments were scheduled to last 60 days from the day of tumor implant.

[6] = Pharmacokinetics in mouse whole blood after IM NUC041 in PEG-phospholipid depot (PPD); settings: analyte in whole blood, NUC041 3 mg/mouse IM in PPD, mice
Description: Quantitative determination of NUC013 and NUC041 in quenched mouse whole blood was accomplished using protein precipitation and high-performance liquid chromatography with tandem mass spectrometry detection. Gemcitabine-^13C, ^15N2 “GemC-^13C”, was used as the internal standard. NUC013, NUC041 and GemC-^13C were extracted from 50 µL whole blood using protein precipitation with acetonitrile. Extracts were analyzed by hydrophilic interaction chromatography at 35 °C, using a XBridge™ Amide column (Waters Corp., Milford, MA, USA) under isocratic conditions, with 100 mM ammonium acetate pH 9: ethanol: acetonitrile (25:25:500, v/v/v) as mobile phase A. Column effluents at a constant flow rate of 300 µL/min were analyzed by multiple reaction monitoring (MRM) using a triple quadrupole mass spectrometer in positive-ion mode (AB Sciex 4000 Q Trap, equipped with TurboV IonSpray®) (SCIEX, Framingham, MA, USA).
The calibration curve for each analyte was fitted using weighted (1/x^2) linear regression analysis of the Analyte/IS peak area ratio versus Analyte/IS concentration ratio from 5–5000 ng/mL.
Pharmacokinetic parameters were calculated from mean concentrations of NUC-041 or NUC013 in blood over time for mice using Phoenix® WinNonlin® (Version 6.3; Pharsight, A Certara Company; Cary, NC, USA).
The PEG-phospholipid depot (Latitude Pharmaceuticals, San Diego, CA, USA) comprised of S-100, DSPE-PEG 2000, sesame oil, and alcohol. These four constituents were placed in a vial, warmed to 40 °C until all products dissolved, and the vehicle was then vortexed. Subsequently, the vehicle was filtered through a 0.22 µm syringe filter and NUC041 was added. The formulated product was heated to 40 °C, vortexed, and stored at 2–8 °C.

[7] = set-up: method as in PMID 28726739; settings: mice; cited from earlier work
[8] = continuous infusion over seven days, patients with refractory solid tumors; cited from earlier work
[9] = IM, mice premedicated with dexamethasone 50 µg IP
[10] = Mice 2-4 (individual), NUC041 0.6 mg/mouse qod, euthanasia day 34
[11] = Mouse 1, NUC041 2.4/3.0 mg/mouse qwk + dexamethasone, euthanasia day 35

“3′,5′-di-trimethylsilyl-2′,2′-difluoro-5-azadeoxycytidine [NUC041]” showed a GI50 (NSCLC NCI-H460; 72 h exposure) of 1.61 µM, a GI50 (Colon Cancer HCT-116; 72 h exposure) of 2.8 µM and an AUCinf [1] of 590.6 ng·h/mL. It also gave an AUClast [1] of 580.4 ng·h/mL, a Cl [1] of 423 mL/min/kg and a Cmax [1] of 2803 ng/mL. It also gave a T1/2 [1] of 11 min, a Vss [1] of 4.431 L/kg and a Tmax ([1]; for NUC041 first sampling time) of 3 min. The “mice with tumor ulcerations, LoVo study” value ([2]; NUC041 administered IV in LNE, SC 3/10) was 2/10, the “efficacy in xenograft model of human colon cancer (LoVo)” value ([2]; NUC041 in LNE 30 mg/kg IV) was “only moderate efficacy” and the “study days on which growth of LoVo was significantly inhibited compared to SC” value ([2]; NUC041 in LNE 30 mg/kg IV, three consecutive days a week for three weeks, p < 0.05) was 27–30 study days. The “tolerability of IM injection of 3 mg per mouse” value ([3]; 50 µg IP dexamethasone 30 min prior) was “without weight loss or lethality”, the “maximum tolerated dose (MTD)” value ([3]; IM qod, no premedication, mice) was 0.6 mg/mouse and the MTD [3, 9] was greater than 3 mg/mouse. For the same compound, the “MTD as mean dose” value [3, 9] was greater than 123.8 mg/kg, the “Tumor Volume” value (human NSCLC NCI-H460 [4]; [10]) was 3035 mm^3 and 1960 mm^3 and 936 mm^3 and the Ulceration (human NSCLC NCI-H460 [4]; [10]) was “no ulceration; also recorded: ulceration”. The “Histopathology: necrosis” value (human NSCLC NCI-H460 [4]; Mice 2-4 (individual), NUC041 0.6 mg/mouse qod, euthanasia day 34, in ulcerated tumors excludes area of ulceration) was 50–60% necrosis and 10% necrosis * and 5% necrosis *, the “Histopathology: necrosis” value (human NSCLC NCI-H460 [4]; [11]) was 30–40% necrosis and the “Tumor Volume” value (human NSCLC NCI-H460 [4]; [11]) was 2746 mm^3. For the same compound, the Ulceration (human NSCLC NCI-H460 [4]; [11]) was “no ulceration”, the “mean tumor volume at which ulceration developed” value (human NSCLC NCI-H460 [5]; 0.6 mg NUC041 group, p = 0.0068) was 1474 mm^3 and the “mean tumor volume at which ulceration developed” value (human NSCLC NCI-H460 [5]; 3 mg NUC041 with dexamethasone group, p = 0.0043) was 1319 mm^3. For the same compound, the deaths in group (human NSCLC NCI-H460 [5]) was “two”, the “mice that developed tumor ulceration” value (human NSCLC NCI-H460 [5]) was 15 of 18 and the Median survival (human NSCLC NCI-H460 [5]; NUC041 0.6 mg IM qod x 15) was 24.5 days. The peak tumor volume (human NSCLC NCI-H460 [5]; NUC041 0.6 mg group, Mice 3 and 4) was 3179 mm^3 and 1913 mm^3, the “regression in tumor volume” value (human NSCLC NCI-H460 [5]; NUC041 0.6 mg group, two individual mice with ulcerated tumors (Mice 3 and 4), day 25 to 32) was 38% and 51% and the Median survival (human NSCLC NCI-H460 [5]; NUC041 2.4 mg/mouse IM qwk x 3 then 3.0 mg/mouse qwk x 1 with 50 µg dexamethasone IP) was 25.5 days. The “survival benefit vs SC” value (human NSCLC NCI-H460 [5]; NUC041 in PPD with or without dexamethasone pretreatment) was “no survival benefit”, the AUCinf [6] was 6261 ng·h/mL and the AUClast [6] was 6030 ng·h/mL. For the same compound, the Cmax [6] was 4210 ng/mL, the MRT [6] was 156 min and the T1/2 [6] was 102 min. The Tmax [6] was 30 min and the Vz/F [6] was 1.172 L/kg.
In the case of Nc1ncn([C@@H]2O[C@H](CO)[C@@H](O)C2(F)F)c(=O)n1 [NUC013, 5-aza-2′,2′-difluorodeoxycytidine], the GI50 (NSCLC NCI-H460; Homo sapiens, NCI-H460, 72 h exposure) is given as 1.57 µM, the GI50 (Colon Cancer HCT-116; Homo sapiens, HCT-116, 72 h exposure) is given as 2.58 µM and the MTD [7] is given as greater than 120 mg/kg. For the same compound, the deaths in group (human NSCLC NCI-H460 [5]) was “One”, the “mice that developed tumor ulceration” value (human NSCLC NCI-H460 [5]) was 1 of 10 and the “hazard ratio (HR) vs SC” value (human NSCLC NCI-H460 [5]; NUC013 20 mg/kg IV qd three consecutive days per week x 4, p = 0.0018, Log rank test) was 0.14.
In the case of Nc1ncn([C@H]2C[C@H](O)[C@@H](CO)O2)c(=O)n1 [decitabine], the MTD [8] is listed as 2 mg/m^2 qd and the “main dose limiting toxicity” value [8] is listed as “neutropenia”.
